Structures can show the parent of a compound that is named as a salt. Where two headings read alike, the source gives them in different places.

In series [1] the test system is tetrabenazine-induced depression (ptosis) in mice. As to the kind of experiment: inhibition of tetrabenazine-induced depression (ptosis) in mice. In kind it is in vivo. The conditions noted are these: Mus musculus, read-out: ED50, 50% inhibition of the ptosis of the tetrabenazine-induced depression. The text has this: Thus, for instance, the intraperitoneal dose at which the following compounds effect a 50% inhibition of the ptosis of the tetrabenazine-induced depression (ED50) in mice are: […]

Series [2] concerns supramaximal electro shock in mice. Nature of the series: protection from supramaximal electro shock in mice (anticonvulsant). The series is classed as in vivo. The conditions noted are these: Mus musculus, ip, intraperitoneal dose, read-out: ED50, approximately 50% protective from the effect of supramaximal electro shock. The source says:
Compounds of the present invention are still further useful as anticonvulsant agents for mammals, as determined by the method of Woodbury, L. A. and Davenport, V. D., in Arch. Int. Pharmacodynam, Vol. 92. (1952) at pages 97 to 107. Thus, for instance, the following intraperitoneal doses at which an approximately 50% protective (ED50) from the effect of supramaximal electro shock in mice are: […]

In series [3] the test system is climbing behavior induced by apomorphine in mice. Nature of the series: apomorphine-induced climbing mice assay (neuroleptic activity). Conditions: intraperitoneally 30 minutes prior to apomorphine 1.5 mg/kg s.c. In kind it is in vivo, CD-1 male mice. As to the method: Central Nervous System Depressant (Neuroleptic) Activity Climbing Mice Assay
The subject CD-1 male mice (23-27 grams) were group-housed under standard laboratory conditions. The mice were individually placed in wire mesh stick cages (4"×4"×10") and were allowed one hour for adaptation and exploration of the new environment. Then apomorphine was injected subcutaneously at 1.5 mg/kg, a dose causing climbing in all subjects for 30 minutes. Compounds to be tested for neuroleptic activity were injected intraperitoneally 30 minutes prior to the apomorphine challenge at a screening dose of 10 mg/kg.
For evaluation of climbing, 3 readings were taken at 10, 20 and 30 minutes after apomorphine administration according to the following scale:
Mice consistently climbing before the injection of apomorphine were discarded.
With full-developed apomorphine climbing, the animals were hanging onto the cage walls, rather motionless, over longer periods of time. By contrast, climbs due to mere motor stimulation usually only lasted a few seconds.
The climbing scores were individually totaled (maximal score: 6 per mouse over 3 readings) and the total score of the control group (vehicle intraperitineally -- apomorphine subcutaneously) was set to 100%.

For series [4], the system named is tail flick in mice. Nature of the series: modified D'Amour-Smith analgesia (tail flick) assay. The series is classed as in vivo, male mice (Charles River: CD-1). The conditions noted are these: generally s.c. The source says:
Analgesic Activity Modified D'Amour-Smith Assay (Tail Flick)
Male mice (Charles River: CD-1) from 18-30 grams were used as test subjects. The mouse tails were individually placed on a "Vee" block and, subsequently, a painful stimulus was produced by an intense light beam (Emdie Instrument Co., Louisa, VA). The subject quickly responds to the noxious stimuli by flicking its tail. The reaction time, the interval between stimulus onset and response, was automatically measured in 1/10-second increments. Prior to drug administration, two control readings of reaction time were measured for each subject with approximately 15 minutes separating the tests. Subjects were discarded if their reaction times in these control tests varied by more than one second or if their inclusion in the study group caused the spread of reaction time to exceed three seconds.
The mean response time (x) and the standard deviation (SD) of the values were then calculated for each set of control scores. The formula presented below was used to calculate cut-off values (C.O.) for each set of control scores and the average of these C.O. values was used to determine evidence of analgesic activity in subsequent drug testing.
The C.O. value was actually a determination of a reaction time which exceeds the mean by two standard deviations. Any reaction time, in subsequent drug tests, which was greater than the C.O. value, therefore exceeds 95% of a normal Gaussian distribution and was called a "positive response" indicative of analgesic activity. Latency changes were calculated by subtracting the tail flick latency of the average control times from the latency after treatment for each mouse.
Compounds were tested in treatment groups of ten subjects and drugs, prepared in distilled water, were generally administered subcutaneously (s.c.) in volumes equivalent to 10 cc/kg. The initial testing was usually in the form of a time response at intervals of 15, 30, 45 and 60 minutes after dosing. If analgesic activity was still increasing at 60 minutes, then two additional groups were tested at 90 minute and 120 minute post dosing.
A time response indicated the period of greatest analgesic effect after dosing. Percent analgesic activity was calculated in the following manner: [formula] Grp.=Group Veh.=Vehicle
The ED50 was determined at the peak time of drug activity. A minimum of three dose groups were employed. Drugs were administered in a randomized manner. ED50 's were calculated using Litchfield-Wilcoxon (LITWL on PDP II) computer analysis.

Series [5] deals with phenyl-p-quinone writhing in mice. Nature of the series: phenyl-p-quinone writhing assay in mice (analgesia). The conditions noted are these: Mus musculus, sc, subcutaneous dose, read-out: ED50, approximately 50% inhibition of writhing. In kind it is in vivo. The source says: Compounds of the invention are further useful as analgesic agents due to their ability to alleviate pain in mammals. […] Exptl. Biol Med., 95 729 (1957)]. Thus for instance, the subcutaneous dose effecting an approximately 50% inhibition of writhing (ED50) in mice produced in this assay is as follows: […]

Series [6] is described as follows: stability study, gas chromatographic assay (acid stability). In kind it is physicochemical. The method, then: Gas chromatographic conditions were established under which 2-fluoro-11-[β-(dimethylamino)ethoxy]dibenz[b,f]oxepin (as the hydrobromide or hydrochloride salts), 2-fluoro-11-[β-(dimethylamino)ethylthio]dibenz[b,f]oxepin (as the hydrobromide salt) and 10,11-dihydro-10-oxodibenz[b,f]oxepin were separated:
Column-Glass 2m×2mm ID packed with 3% OV-225 on 80/100 supelcoport
Temperature: Isothermal at 220° C.
Flow Rate: He at 45 ml/min
Instrument: Perkin-Elmer 3920B
Solutions of 2-fluoro-11-[β-(dimethylamino)ethoxy]dibenz[b,f]oxepin and 2-fluoro-11-[β-(dimethylamino)ethylthio]dibenz[b,f]oxepin were prepared in water at a concentration of 200 mg/100 ml. Portions of these stock aqueous solutions were used in each of the following experiments. All aqueous samples were prepared for gas chromotographic (GC) injection by first adding sodium carbonate solution to adjust the pH to 9 and then extracting with ethyl acetate. The ethyl acetate layer was separated and 2.0μ of it were injected.
II. Acidification of 2.0 ml of 2-fluoro-11-[β-(dimethylamino)ethoxy]dibenz[b,f]oxepin stock solution with 0.2 ml of concentrated hydrochloric acid and standing at ambient temperature produced increases in the levels of 10,11-dihydro-10-oxodibenz[b,f]oxepin beyond the 0.2% level initially contaminating the sample of 2-fluoro-11-[β-(dimethylamino)ethoxy]dibenz[b,f]oxepin.
III. Simultaneous experiments were performed using 2.0 ml of each stock solution of […] and 2-fluoro-11-[β-(dimethylamino)ethylthio]dibenz[b,f]oxepin in individual test tubes. Acidification of each solution with 0.2 ml of concentrated hydrochloric acid and side by side warming (not reflux) for 2 minutes (electric heat gun) produced a visible change.

The conditions of series [7]: M. Protvia, et al. Il Farmaco XXI, 98 (1966); cited from earlier work.
The mark [8] stands for this setting: 0.2 ml concentrated hydrochloric acid, warming (not reflux) for 2 minutes.

Take `CN(C)CCSC1Cc2ccccc2Oc2ccc(Cl)cc21.O=C(O)C(=O)O` (stereo not drawn) [2-chloro-10,11-dihydro-11-[β-(dimethylamino)-ethylthio]-dibenz[b,f]oxepin oxalate]: the median effective dose (ED50) in series [1] (ip, intraperitoneal dose) was 3.5 mg/kg; in series [2], 19.4 mg/kg.

Take `CN(C)CCSC1=Cc2ccccc2Oc2ccc(Cl)cc21` [2-chloro-11-[β-(dimethylamino)ethylthio]dibenz[b,f]oxepin]: the “Activity (% Inhibition of Climbing)” value in series [3] (10 mg/kg) came out at 5%. For the same molecule, in series [4] (dose 25 mg/kg), the “Analgesic Activity (%)” value is 20%.

Take `CN(C)CCSC1Cc2ccccc2Oc2ccc(F)cc21.O=C(O)C(=O)O` (stereo not drawn) [2-fluoro-10,11-dihydro-11-[β-(dimethylamino)ethylthio]dibenz[b,f]oxepin oxalate]: the ED50 in series [1] (oral dose (footnote *)) was 7.6 mg/kg; in series [2], 9 mg/kg; in series [5], 1.9 mg/kg.

As for `CN(C)CCOC1=Cc2ccccc2Oc2ccc(F)cc21` [2-fluoro-11-[β-(dimethylamino)ethoxy]dibenz[b,f]oxepin], the “visible change of the acidified solution on warming” value in series [6] (setting [8]) is “became white and cloudy”. In addition, the “decomposition on reflux after addition of concentrated hydrochloric acid” value in series [6] (25 ml stock + 2.5 ml concentrated hydrochloric acid, further reflux 10 mins, to 10,11-dihydro-10-oxodibenz[b,f]oxepin) is “complete decomposition”. Moreover, the “decomposition on reflux of aqueous stock solution” value in series [6] (water, 200 mg/100 ml, reflux, 45 minutes) is “no apparent decomposition”. The degraded at 2 min in series [6] (water, concentrated hcl, 0.2 ml concentrated hydrochloric acid, warming (not reflux) for 2 minutes, read-out: decomposed to 10,11-dihydro-10-oxodibenz[b,f]oxepin by GC analysis) worked out at 87.2%; in series [6] (water, concentrated hcl, 2 min, ambient temperature, 2.0 ml stock + 0.2 ml concentrated hydrochloric acid, product 10,11-dihydro-10-oxodibenz[b,f]oxepin, read-out: % Increase in decomposition product) it was 0.35%. For the same molecule, in series [6] (water, concentrated hcl, 60 min, ambient temperature, 2.0 ml stock + 0.2 ml concentrated hydrochloric acid, product 10,11-dihydro-10-oxodibenz[b,f]oxepin, read-out: % Increase in decomposition product), the degraded at 1 h was 2.16%. Also, the degraded at 140 min in series [6] (water, concentrated hcl, 140 min, ambient temperature, 2.0 ml stock + 0.2 ml concentrated hydrochloric acid, product 10,11-dihydro-10-oxodibenz[b,f]oxepin, read-out: % Increase in decomposition product) worked out at 3%.

As to `Br.CN(C)CCSC1=Cc2ccccc2Oc2ccc(F)cc21` [2-fluoro-11-[β-(dimethylamino)ethylthio]dibenz[b,f]oxepin hydrobromide], the ED50 in series [1] (ip, intraperitoneal dose) was found to be 4.3 mg/kg; in series [2], 9.2 mg/kg.

Turning to `CN(C)CCSC1=Cc2ccccc2Oc2ccc(F)cc21` [2-fluoro-11-[β-(dimethylamino)ethylthio]dibenz[b,f]oxepin], the “Activity (% Inhibition of Climbing)” value in series [3] (10 mg/kg) is recorded as 10%. For the same molecule, the “Analgesic Activity (%)” value in series [4] (dose 23.9 mg/kg) came out at 50%. In series [6] (setting [8]), the “decomposition by GC analysis (in words)” value is given as “did not decompose”; the “visible change of the acidified solution on warming” value was “remained clear and colorless”.

As for `CNCCSC1=Cc2ccccc2Oc2ccc(F)cc21.O=C(O)/C=C\C(=O)O` [2-fluoro-11-[β-(methylamino)ethylthio]dibenz[b,f]oxepin maleate], the median effective dose (ED50) in series [1] (ip, intraperitoneal dose) worked out at 0.3 mg/kg; in series [2] it was 9.9 mg/kg; in series [5], 2.3 mg/kg.

For `CNCCSC1=Cc2ccccc2Oc2ccc(F)cc21` [2-fluoro-11-[β-(methylamino)ethylthio]dibenz[b,f]oxepin], the “Analgesic Activity (%)” value in series [4] (dose 11.3 mg/kg) is 50%.

Turning to `CN(C)CCSC1Cc2ccccc2Oc2ccccc21` (stereo not drawn) [10,11-dihydro-10-[β-(dimethylamino)ethylthio[dibenz[b,f]oxepin oxalate], the ED50 in series [1] (ip, intraperitoneal dose) turned out to be 7 mg/kg; in series [2] it was 7.7 mg/kg.

Regarding `CNCCSC1=Cc2ccccc2Oc2ccccc21.O=C(O)C(=O)O` [10-[β(methylamino)ethylthio]dibenz[b,f]oxepin oxalate], the 50% effective dose (ED50) is 3.4 mg/kg in series [1] (ip, intraperitoneal dose); 21 mg/kg in series [2]; 2.3 mg/kg in series [5].

As to `CN(C)CCSC1=Cc2ccccc2Oc2ccccc21` [10-[β-(dimethylamino)ethylthio]dibenz[b,f]oxepin], in series [3] (15 mg/kg), the “Activity (% Inhibition of Climbing)” value was found to be 20%. Also, in series [4] (dose 25 mg/kg), the “Analgesic Activity (%)” value was 30%.

On to `CNCCSC1=Cc2ccccc2Oc2ccccc21` [10-[β-(methylamino)ethylthio]dibenz[b,f]oxepin], for which, in series [4] (dose 11.6 mg/kg), the “Analgesic Activity (%)” value stood at 50%.

As to `CSc1ccc2c(c1)C(SCCN(C)C)=Cc1ccccc1O2` [11-[β-(dimethylamino)ethylthio]-2-(methylthio)dibenz[b,f]oxepin], the “Activity (% Inhibition of Climbing)” value in series [3] (10 mg/kg) turned out to be 18%. In addition, the “Analgesic Activity (%)” value in series [4] (dose 14.1 mg/kg) was determined as 50%.

Regarding `CN(C)CCOC1Cc2ccccc2Sc2ccc(Cl)cc21` (centres unmarked) [Amethoclothepine], in series [7], the “central depressant activity (in words)” value was “central depressant activity”.

The record behind these values is patent US4837227A, “Aminoalkylthiodibenzoxepins and pharmaceutical use” (Hoechst-Roussel Pharmaceuticals, Inc., priority 1985, dated 1989).
